Test results as given in patent US20260216219A1, “MODULATOR FOR PROMOTING BINDING OF BUTYROPHILIN 3A1/2A1” (priority 2023, published 2026).

What follows are molecules tested on MIAPaCa/FG2 cells (assay: EC50 assay of small molecule activated γδ T cells to kill tumor cells (10-fold dilution, 10^-12-10^-5 M)). Conditions: Homo sapiens, MIA PaCa-2, 20 h, read-out: MIApaca killing (nM).
Assay type: cell-based
Method: γδT cells and MIAPaCa/FG2 tumor cell lines were expanded and cultured in vitro. The MIAPaCa/FG2 cells were digested, and the cells were counted and resuspended in DMEM complete medium, the density of the cell suspension was adjusted and added into a 96-well plate at 5×10^3 cells/50 μL/well for overnight incubation. On the next day, the test compound and the control compound were diluted at a 10-fold ratio with γδT complete medium. 50 μL of diluted compound was transferred to the corresponding wells which had been plated with tumor cells, and the actual detection concentration was in the range of 10^−12-10^−5 M. γδT cells were resuspended in γδT complete medium, and the density of the cell suspension was adjusted according to the effector-target ratio of E:T=2:1, and then the cells were added to the corresponding wells at 1×10^4 cells/50 μL/well. After co-culture at 37° C., 5% CO2 for 20 hours, the cells were centrifuged. The supernatant was removed, and 50 μL of cell lysate containing luciferin substrate was added to each well. After standing for 18 minutes in the dark, the signal of chemiluminescence was detected. The EC50 value was calculated by four-parameter fitting, with the corresponding signal value of the well with only tumor cells as the minimum killing value, and the corresponding signal value of the well without tumor cells as the maximum killing value. The killing data of MIAPaCa/FG2 cells are as follows: […]

| SMILES | EC50 [nM] |
| --- | --- |
| C/C(=C\CCP(=O)(N[C@@H](C)C(=O)OC(C)C)Oc1ccccc1)CO (stereo partly drawn) [Control compound 1, Isopropyl (((E)-5-hydroxy-4-methylpent-3-en-1-yl)(phenoxy)phosphoryl)-L-alaninate, reference compound] | 0.57 |

Same assay, conditions: Homo sapiens, MIA PaCa-2; γδT cells co-cultured with MIAPaCa/FG2 cells, E:T=2:1, 20 hours; compound diluted 10-fold, 10^-12-10^-5 M; chemiluminescence; read-out: MIApaca killing

| SMILES | EC50 [nM] |
| --- | --- |
| CC(C)OC(=O)[C@H](C)NP(=O)(OC/C=C(/CO)C(F)(F)F)Oc1ccc(C[C@H](NC(=O)OCc2ccccc2)C(=O)OC2CCCC2)cc1 (stereo partly drawn) [Compound 6] | 11.4 |
| CC(C)OC(=O)[C@H](Cc1ccc(OP(=O)(N[C@@H](C)C(=O)OC2CCCC2)OC/C=C(/CO)C(F)(F)F)cc1)NC(=O)OCc1ccccc1 (stereo partly drawn) [Compound 7] | 9.6 |

Same assay, conditions: read-out: MIApaca killing; γδT cells co-cultured with MIAPaCa/FG2 cells, E:T=2:1, 20 hours; compound diluted 10-fold, 10^-12-10^-5 M; chemiluminescence

| SMILES | EC50 [nM] |
| --- | --- |
| C/C(=C\CCP(=O)(N[C@@H](C)C(=O)OC(C)C)Oc1ccc(C[C@H](NC(=O)OCc2ccccc2)C(=O)OC2CCCC2)cc1)CO (stereo partly drawn) [Compound 1, Cyclopentyl (2S)-2-(benzyloxycarbonylamino)-3-[4-[[(E)-5-hydroxy-4-methyl-pent-3-enyl]-[[(1S)-2-isopropoxy-1-methyl-2-oxo-ethyl]amino]phosphoryl]oxyphenyl]propionate] | 0.1 |
| C/C(=C\CCP(=O)(N[C@@H](C)C(=O)OC(C)C)Oc1ccc(C[C@H](NC(=O)OCc2ccccc2)C(=O)O[C@H]2CCOC2)cc1)CO (stereo partly drawn) [Compound 2, (S)-tetrahydrofuran-3-yl (2S)-2-(benzyloxycarbonylamino)-3-[4-[[(E)-5-hydroxy-4-methyl-pent-3-enyl]-[[(1S)-2-isopropoxy-1-methyl-2-oxo-ethyl]amino]phosphoryl]oxyphenyl]propionate] | 0.12 |
| C/C(=C\CCP(=O)(N[C@@H](C)C(=O)OC(C)C)Oc1ccc(C[C@H](NC(=O)OCc2ccccc2)C(=O)O[C@@H]2CCOC2)cc1)CO (stereo partly drawn) [Compound 3, (R)-tetrahydrofuran-3-yl (2S)-2-(benzyloxycarbonylamino)-3-[4-[[(E)-5-hydroxy-4-methyl-pent-3-enyl]-[[(1S)-2-isopropoxy-1-methyl-2-oxo-ethyl]amino]phosphoryl]oxyphenyl]propionate] | 0.17 |
| C/C(=C\CCP(=O)(N[C@@H](C)C(=O)OC1CCCC1)Oc1ccc(C[C@H](NC(=O)OCc2ccccc2)C(=O)OC(C)C)cc1)CO (stereo partly drawn) [Compound 4, Isopropyl (2S)-2-(benzyloxycarbonylamino)-3-[4-[[(E)-5-hydroxy-4-methyl-pent-3-enyl]-[[(1S)-2-isocyclopentyloxy-1-methyl-2-oxo-ethyl]amino]phosphoryl]oxyphenyl]propionate] | 0.07 |
| C/C(=C\CCP(=O)(N[C@@H](C)C(=O)OC(C)C)Oc1ccc(C[C@H](NC(=O)CCc2ccccc2)C(=O)OC2CCCC2)cc1)CO (stereo partly drawn) [Compound 5, Cyclopentyl (2S)-2-(3-phenylpropionylamino)-3-[4-[[(E)-5-hydroxy-4-methyl-pent-3-enyl]-[[(1S)-2-isopropoxy-1-methyl-2-oxo-ethyl]amino]phosphoryl]oxyphenyl]propionate] | 0.06 |

Same assay, conditions: γδT cells co-cultured with MIAPaCa/FG2 cells, E:T=2:1, 20 hours; compound diluted 10-fold, 10^-12-10^-5 M; chemiluminescence; read-out: MIApaca killing

| SMILES | EC50 [nM] |
| --- | --- |
| C/C(=C\COP(=O)(O)OP(=O)(O)O)CO [HMBPP control, reference compound] | 2.1 |

Each molecule was assayed on MIAPaCa/FG2 cells (assay: EC50 assay of small molecule activated γδ T cells to kill tumor cells (3-fold dilution, 0.05-100 nM)). Conditions: T-cell, γδT cells co-cultured with MIAPaCa/FG2 cells, E:T=2:1, 20 hours, compound diluted 3-fold, chemiluminescence, read-out: killing data of MIAPaCa/FG2 cells (EC50).
Assay type: cell-based
Method: γδT cells and MIAPaCa/FG2 tumor cell lines were expanded and cultured in vitro. MIAPaCa/FG2 cells were digested, and the cells were counted and resuspended in DMEM complete medium, the density of the cell suspension was adjusted and added into a 96-well plate at 5×10^3 cells/50 μL/well for overnight incubation. On the next day, the test compound and the control compound were diluted at a 3-fold ratio with DMSO, and 4 μL of the diluted compound was added to 96 μL of culture medium for 25-fold dilution. 5 μL of 25-fold diluted compound was transferred to the corresponding well which had been plated with tumor cells, and the actual detection concentration was in the range of 0.05-100 nM. γδT cells were resuspended in γδT complete medium, and the density of the cell suspension was adjusted according to the effector-target ratio of E:T=2:1, and then the cell was added to the corresponding well at 1×10^4 cells/100 μL/well. After co-culture at 37° C., 5% CO2 for 20 hours, the cells were centrifuged. The supernatant was removed, and 50 μL of cell lysate containing […] substrate was added to each well. After standing for 18 minutes in the dark, the signal of chemiluminescence was detected. The EC50 value was calculated by four-parameter fitting, with the corresponding signal value of the well with only tumor cells as the minimum killing value, and the corresponding value of the well without tumor cells as the maximum killing value. The killing data of MIAPaCa/FG2 cells are as follows: […]

| SMILES | EC50 [nM] |
| --- | --- |
| C/C(=C\CCP(=O)(N[C@@H](C)C(=O)OC(C)C)Oc1ccccc1)CO (stereo partly drawn) [Control compound 1, Isopropyl (((E)-5-hydroxy-4-methylpent-3-en-1-yl)(phenoxy)phosphoryl)-L-alaninate, reference compound] | 0.53 |

Same assay, conditions: γδT cells co-cultured with MIAPaCa/FG2 cells, E:T=2:1, 20 hours, compound diluted 3-fold, chemiluminescence, read-out: killing data of MIAPaCa/FG2 cells (EC50)

| SMILES | EC50 [nM] |
| --- | --- |
| C/C(=C\CCP(=O)(N[C@@H](C)C(=O)OC(C)C)Oc1ccc(C[C@H](NCCCc2ccccc2)C(=O)O[C@@H]2CCOC2)cc1)CO (stereo partly drawn) [Compound 8] | 0.052 |
| C/C(=C\CCP(=O)(N[C@@H](C)C(=O)OC(C)C)Oc1ccc(C[C@H](NCCCc2ccccc2)C(=O)O[C@H]2CCOC2)cc1)CO (stereo partly drawn) [Compound 9] | 0.012 |
| C/C(=C\CCP(=O)(N[C@@H](C)C(=O)OC(C)C)Oc1ccc(C[C@H](NCCc2ccccc2)C(=O)O[C@H]2CCOC2)cc1)CO (stereo partly drawn) [Compound 11, (S)-Tetrahydrofuran-3-yl (2S)-3-(4-((((E)-5-hydroxy-4-methylpent-3-en-1-yl)(((S)-1-isopropoxy-1-oxopropan-2-yl)amino)phosphor yl)oxy)phenyl)-2-(phenethylamino)propionate] | 41.7 |
| C/C(=C\CCP(=O)(N[C@@H](C)C(=O)OCC(C)C)Oc1ccc(C[C@H](NCCCc2ccccc2)C(=O)O[C@H]2CCOC2)cc1)CO (stereo partly drawn) [Compound 12, (S)-tetrahydrofuran-3-yl (2S)-3-(4-((((E)-5-hydroxy-4-methylpent-3-en-1-yl)(((S)-1-isobutoxy-1-oxopropan-2-yl)amino)phosphoryl)oxy)phenyl)-2-((3-phenylpropyl)amino)propionate] | 0.011 |
| CCC(CC)OC(=O)[C@H](C)NP(=O)(CC/C=C(\C)CO)Oc1ccc(C[C@H](NCCCc2ccccc2)C(=O)O[C@H]2CCOC2)cc1 (stereo partly drawn) [Compound 13, (S)-tetrahydrofuran-3-yl (2S)-3-(4-((((E)-5-hydroxy-4-methylpent-3-en-1-yl)(((S)-1-oxo-1-(pentan-3-yloxy)propan-2-yl)amino)phosphoryl)oxy)phenyl)-2-((3-phenylpropyl)amino)propionate] | 0.42 |
| C/C(=C\CC[P@@](=O)(N[C@@H](C)C(=O)NC(C)C)Oc1ccc(C[C@H](NCCCc2ccccc2)C(=O)O[C@H]2CCOC2)cc1)CO [Compound 14] | 0.016 |
| C/C(=C\CC[P@](=O)(N[C@@H](C)C(=O)NC(C)C)Oc1ccc(C[C@H](NCCCc2ccccc2)C(=O)O[C@H]2CCOC2)cc1)CO [Compound 15] | 1.6 |
| C/C(=C\CCP(=O)(N[C@@H](C)C(=O)OCC(C)C)Oc1ccc(C[C@H](NCCCc2ccccc2)C(=O)NC(C)C)cc1)CO (stereo partly drawn) [Compound 16, Isobutyl (((E)-5-hydroxy-4-methylpent-3-en-1-yl)(4-((S)-3-(isopropylamino)-3-oxo-2-((3-phenylpropyl)amino)propyl)phenoxy)phosphoryl)-L-alaninate] | 0.011 |
